Assays:
[1] = target: T1, 3-hydroxy-3-methylglutaryl-coenzyme A reductase (Homo sapiens, UniProt P04035); test: Concentration required to inhibit HMG-CoA reductase by 50% was determined in Hep G2 cell line; assay type: functional, cell-based, HepG2
T1 sequence (P04035 whole entry): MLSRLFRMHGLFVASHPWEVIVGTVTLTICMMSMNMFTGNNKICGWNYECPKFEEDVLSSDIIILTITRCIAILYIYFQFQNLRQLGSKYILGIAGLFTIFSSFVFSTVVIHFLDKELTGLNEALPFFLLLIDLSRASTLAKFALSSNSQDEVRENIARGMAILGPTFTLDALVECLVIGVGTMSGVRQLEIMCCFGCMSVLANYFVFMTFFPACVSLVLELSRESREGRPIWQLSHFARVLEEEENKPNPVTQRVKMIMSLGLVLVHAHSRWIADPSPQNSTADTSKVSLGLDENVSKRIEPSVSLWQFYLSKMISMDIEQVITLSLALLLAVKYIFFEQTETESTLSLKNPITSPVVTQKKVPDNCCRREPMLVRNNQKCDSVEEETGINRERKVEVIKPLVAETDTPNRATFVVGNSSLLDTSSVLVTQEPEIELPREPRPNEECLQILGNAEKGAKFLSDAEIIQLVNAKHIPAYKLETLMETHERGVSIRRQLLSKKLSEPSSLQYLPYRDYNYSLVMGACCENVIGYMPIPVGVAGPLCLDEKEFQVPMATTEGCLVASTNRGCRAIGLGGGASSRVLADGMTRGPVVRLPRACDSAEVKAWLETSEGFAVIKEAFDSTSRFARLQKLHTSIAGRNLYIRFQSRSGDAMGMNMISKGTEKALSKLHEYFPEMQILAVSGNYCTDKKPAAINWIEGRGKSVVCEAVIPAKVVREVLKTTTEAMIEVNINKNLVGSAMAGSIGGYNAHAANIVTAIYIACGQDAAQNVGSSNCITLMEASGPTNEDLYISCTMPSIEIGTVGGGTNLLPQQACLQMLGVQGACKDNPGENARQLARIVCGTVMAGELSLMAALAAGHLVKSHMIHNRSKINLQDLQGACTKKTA

[2] = target: T2, 3-hydroxy-3-methylglutaryl-coenzyme A reductase (Rattus norvegicus, UniProt P51639); test: Inhibitory activity against HMG-CoA reductase from rat liver microsomal preparation
T2 sequence (P51639 whole entry): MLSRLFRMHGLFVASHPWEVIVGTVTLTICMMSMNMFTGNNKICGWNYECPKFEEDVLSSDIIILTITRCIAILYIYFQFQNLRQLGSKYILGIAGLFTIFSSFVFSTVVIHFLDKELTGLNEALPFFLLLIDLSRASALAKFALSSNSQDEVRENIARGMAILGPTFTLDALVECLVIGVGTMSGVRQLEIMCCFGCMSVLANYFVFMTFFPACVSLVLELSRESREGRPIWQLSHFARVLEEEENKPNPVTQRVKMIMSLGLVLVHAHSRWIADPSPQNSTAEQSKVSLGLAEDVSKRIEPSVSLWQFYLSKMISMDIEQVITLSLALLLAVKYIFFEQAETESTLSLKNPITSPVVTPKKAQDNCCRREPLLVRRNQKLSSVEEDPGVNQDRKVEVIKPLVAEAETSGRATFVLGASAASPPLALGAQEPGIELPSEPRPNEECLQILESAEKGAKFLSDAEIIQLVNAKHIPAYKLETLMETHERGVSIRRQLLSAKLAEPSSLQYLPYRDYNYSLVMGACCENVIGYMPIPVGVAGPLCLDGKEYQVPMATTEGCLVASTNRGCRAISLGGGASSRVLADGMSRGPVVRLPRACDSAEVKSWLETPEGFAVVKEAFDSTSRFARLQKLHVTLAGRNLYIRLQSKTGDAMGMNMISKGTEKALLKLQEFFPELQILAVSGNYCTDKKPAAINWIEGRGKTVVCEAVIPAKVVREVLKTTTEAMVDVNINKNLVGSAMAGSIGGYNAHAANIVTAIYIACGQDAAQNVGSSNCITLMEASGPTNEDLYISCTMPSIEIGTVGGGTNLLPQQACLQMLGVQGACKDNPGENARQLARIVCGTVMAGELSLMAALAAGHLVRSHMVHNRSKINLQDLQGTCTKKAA

HES = test: Concentration required to inhibit HMG-CoA reductase by 50% was determined in HES 9 cell line; assay type: functional, cell-based; settings: Homo sapiens

Row | Compound | IC50 [1] [nM] | IC50 [2] [nM] | IC50 (HES) [nM]
1 | CC[C@H](C)C(=O)O[C@H]1C[C@H](O)C[C@@H]2C=C[C@H](C)[C@H](CC[C@H](O)C[C@H](O)CC(=O)O)[C@@H]12 | 2220 | 14 | 7280
2 | CC[C@H](C)C(=O)O[C@H]1C[C@@H](C)C=C2C=C[C@H](C)[C@H](CC[C@@H]3C[C@@H](O)CC(=O)O3)[C@H]21 [LOVASTATIN] | – | – | 13

The remaining compounds from weak to strong by IC50 (HES), led by results:

Row | IC50 [1] [nM] | IC50 [2] [nM] | IC50 (HES) [nM] | Compound
3 | 1400 | – | 7000 | CC[C@H](C)C(=O)O[C@H]1C[C@H](O)C[C@@H]2C=C[C@H](C)[C@H](CCC3C[C@@H](O)CC(=O)O3)[C@@H]12 (stereo not given in full)
4 | 29 | – | 17 | CC[C@H](C)C(=O)O[C@H]1C[C@@H](C)C=C2C=C[C@H](C)[C@H](CC[C@@H](O)C[C@@H](O)CC(=O)O)[C@H]21
5 | 12 | – | 6.5 | CCC(C)(C)C(=O)O[C@H]1C[C@@H](C)C=C2C=C[C@H](C)[C@H](CC[C@@H](O)C[C@@H](O)CC(=O)O)[C@H]21

Reference: ChEMBL document CHEMBL1126120, “Synthesis and biological evaluation of dihydroeptastatin, a novel inhibitor of 3-hydroxy-3-methylglutaryl coenzyme A reductase” (J Med Chem, 1992)
